Data from patent publication US7494996B2 (priority 2000, dated 2009).

How the values were obtained:
Sphaerotheca fuliginea = assay: Cucumber Powdery Mildew (CPM) protectant test in the greenhouse; assay type: in vivo; conditions: 100 is total disease control, 0 is no disease control; for Cucumber Powdery Mildew (CPM) protectant fungicide data, percent control: 300 g/ha; for pest or weed control at 300 g/ha: Podosphaera fuliginea, topical, 168 h, read-out: Cucumber Powdery Mildew (CPM) protectant fungicide data, percent control
Procedure, shortened: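 Compounds in acetone-methanol-water (1:1:2) sprayed onto cucumber cv. "Bush Champion" (cotyledons plus one true leaf, 13 days old), dried 4 h. Inoculated 1 day later with 2×10^5 spores/ml; disease control (%) rated after 7 days in greenhouse.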

Pyricularia oryzae = assay: whole plant or invertebrate; assay type: in vivo; conditions: 100 is total disease control, 0 is no disease control; for Rice Blast (RB) protectant fungicide data, percent control: 300 g/ha, greenhouse; for pest or weed control at 300 g/ha: Pyricularia oryzae, topical, 144 h, read-out: Rice Blast (RB) protectant fungicide data, percent control, protectant, 300 g/ha, greenhouse

Structure (SMILES)	Cucumber Powdery Mildew (CPM) protectant fungicide data, percent control (Sphaerotheca fuliginea) [percent control]	Rice Blast (RB) protectant fungicide data, percent control (Pyricularia oryzae) [percent control]	pest or weed control at 300 g/ha (Sphaerotheca fuliginea) [%]	pest or weed control at 300 g/ha (Pyricularia oryzae) [%]
CCC#CCN1N=C(c2ccc(Cl)c(Cl)c2)NCC1=O [Compound 210]	25	100	–	–
CCCCN1N=C(c2cccc(Br)c2)NCC1=O [Compound 211]	85	100	–	–
O=C1CNC(c2cccc(Br)c2)=NN1CC(F)(F)F [Compound 212]	85	98	–	–
CCCCN1N=C(c2ccccc2OCc2ccccc2)NCC1=O [Compound 213]	50	85	–	–
CCOC(=O)N1C(c2cc(Cl)cc(Cl)c2)=NN(CC(F)(F)F)C(=O)C1OC (stereo not drawn) [Compound 214]	85	50	–	–
C#CCN1N=C(c2ccc(Cl)c(Cl)c2)NCC1=O [Compound 215]	0	85	–	–
C#CCN1CC(=O)N(CC#C)N=C1c1ccc(Cl)c(Cl)c1 [Compound 216]	80	98	–	–
C#CCN1CC(=O)N(CC#C)N=C1c1ccc(F)c(Br)c1 [Compound 217]	0	85	–	–
C#CCN1N=C(c2ccc(F)c(Br)c2)NCC1=O [Compound 218]	80	98	–	–
O=C1CN(CC2CC2)C(c2ccc(F)c(Br)c2)=NN1CC1CC1 [Compound 219]	75	50	–	–
O=C1CNC(c2ccc(F)c(Br)c2)=NN1CC1CC1 [Compound 220]	80	100	–	–
CCCCN1N=C(c2cccc(F)c2)NCC1=O [Compound 221]	80	85	–	–
O=C1CN(CC2CC2)C(c2cccc(F)c2)=NN1CC1CC1 [Compound 222]	50	0	–	–
O=C1CNC(c2cccc(F)c2)=NN1CC1CC1 [Compound 223]	80	95	–	–
O=C1CN(CC2CC2)C(c2cccc(Br)c2)=NN1CC1CC1 [Compound 224]	50	75	–	–
C#CCN1N=C(c2cccc(F)c2)NCC1=O [Compound 225]	0	80	–	–
C#CCN1CC(=O)N(CC#C)N=C1c1cccc(Br)c1 [Compound 226]	0	50	–	–
C#CCN1N=C(c2cccc(Br)c2)NCC1=O [Compound 227]	75	90	–	–
CCCCN1N=C2C=CC(c3ccc(Cl)cc3)=NN2CC1=O [Compound 229]	–	–	50	0
CCCCN1N=C(c2ccc(C3=NN(CCCC)C(=O)CN3)cc2)NCC1=O [Compound 230]	–	–	0	75
CCCCN1N=C(c2ccc(-c3ccc(C4=NN(CCCC)C(=O)CN4)cc3)cc2)NCC1=O [Compound 231]	–	–	0	85
CCCCN1N=C(c2cccc(C3=NN(CCCC)C(=O)CN3)c2)NCC1=O [Compound 232]	99	100	–	–
CCC#CCn1nc(-c2ccc(Cl)cc2)nc(C)c1=O [Compound 237]	95	0	–	–
O=c1cnc(-c2ccccc2)n[nH]1 [Compound 243]	0	75	–	–

Structure (SMILES)	Cucumber Powdery Mildew (CPM) protectant fungicide data, percent control (Sphaerotheca fuliginea) [percent control]	Rice Blast (RB) protectant fungicide data, percent control (Pyricularia oryzae) [percent control]	pest or weed control at 300 g/ha (Sphaerotheca fuliginea) [%]	pest or weed control at 300 g/ha (Pyricularia oryzae) [%]
CCCCn1nc(-c2ccc(OC)cc2)ncc1=O [Compound 244]	50	100	–	–
FC(F)(F)Cn1nc(-c2cccc(Cl)c2)ncc1=S [Compound 246]	0	100	–	–
CCOC(=O)Cn1nc(-c2ccc(Cl)cc2)ncc1=O [Compound 250]	50	90	–	–
CCCCCn1nc(-c2cc(Cl)c(C)c(Cl)c2)ncc1=O [Compound 257]	50	95	–	–
CCCCn1nc(-c2ccc(Cl)cc2)ncc1=O [Compound 258]	75	100	–	–
O=c1cnc(-c2ccc(Cl)cc2)nn1-c1ccccn1 [Compound 261]	0	50	–	–
O=c1cnc(-c2ccccc2F)nn1CC(F)(F)F [Compound 263]	85	80	–	–
N#CCn1nc(-c2ccc(Cl)cc2)ncc1=O [Compound 264]	0	50	–	–
O=c1cnc(-c2ccccc2Cl)nn1CC(F)(F)F [Compound 267]	85	80	–	–
CCCCn1nc(-c2sc(C)nc2C(F)(F)F)ncc1=O [Compound 268]	75	0	–	–
CCCCn1nc(-c2cc(Cl)ccc2Cl)ncc1=O [Compound 269]	0	99	–	–
O=c1cnc(-c2ccc(Cl)c(Cl)c2)nn1CC1CC1 [Compound 272]	80	100	–	–
CCOc1ccc(-c2ncc(=O)n(-c3ccc(Cl)cc3)n2)cc1 [Compound 274]	0	85	–	–
CCOC(=O)Cn1nc(-c2cccc(C)c2)ncc1=O [Compound 275]	0	85	–	–
N#CCCn1nc(-c2ccc(-c3ccc([N+](=O)[O-])cc3)cc2)ncc1=O [Compound 276]	0	85	–	–
CCCCn1nc(-c2cccc(Cl)c2)ncc1=O [Compound 277]	0	95	–	–
Cc1cccc(-n2nc(-c3cccc(Cl)c3)ncc2=O)c1 [Compound 278]	0	85	–	–
CCCCOc1ccc(-c2ncc(=O)n(CCC)n2)cc1 [Compound 280]	0	50	–	–
CCCOc1ccc(-c2ncc(=O)n(CC(F)(F)F)n2)cc1 [Compound 281]	95	85	–	–
Cn1nc(-c2ccc(Oc3ccccc3)cc2)ncc1=O [Compound 282]	75	75	–	–
CCCCn1nc(-c2ccccc2OC)ncc1=O [Compound 283]	50	90	–	–
CCCCn1nc(-c2ccccc2O)ncc1=O [Compound 287]	0	80	–	–
CCCCn1nc(-c2cc(C(F)(F)F)cc(C(F)(F)F)c2)ncc1=O [Compound 288]	75	0	–	–
CCCCn1nc(-c2ccc(F)c(Br)c2)ncc1=O [Compound 289]	50	100	–	–
